Reference: patent publication US20020015942A1, “Method for cancer screening” (priority 1996, published 2002)

Tests used:
A10 cells [1] = assay: Frequency of endoapoptotic bodies after incubation with cytochalasin B; assay type: cell-based, Rat; settings: 48 h, 2 μg/ml in culture medium
A10 cells [2] = tested on: A10 cells
Description: A10 cells were stained with acridine orange at different times after exposure to hydrogen peroxide (0.2 mM) and at least 500 cells were scored at each time interval to obtain the above graph. Lines 1-4 represent the frequency of apoptotic nuclei having characteristic fluorescence patterns.
Acridine orange and DAPI staining: Cells grown on glass coverslips were stained for 3-4 minutes in 100 μg/ml acridine orange (Sigma Chemicals Ltd) dissolved in HBSS; coverslips were rinsed briefly in HBSS and mounted in HBSS [19]. Cells were examined immediately in a Zeiss Axioskop fluorescence microscope equipped with filter #9 and epi-illumination. Double stranded DNA fluoresces green while single-stranded RNA and DNA fluoresce red after staining with acridine orange. In most of the experiments, endoapoptosis was scored by the presence of the endoapoptotic nuclei (mini cells) in very early (bright green fluorescence), mid phase (red fluorescence), late phase (no specific fluorescence) or the presence of a ‘ghost’ with no nuclear matrix, with or without fragmentation of the mini cells.

A10 cells [3] = settings: hydrogen peroxide-induced apoptotic cells
Description: Electron microscopy: For studying endoapoptosis in transformed foci, NIH3T3 cells were grown on Thermanox plastic coverslips and the cells were processed as monolayer by fixation with 2% glutaraldehyde in 0.1 M cacodylate buffer, pH 7.3, overnight at 5° C., and post-fixed with 1% osmium tetroxide acid. Cells were in block stained overnight in 0.5% aqueous uranyl acetate, dehydrated in acetone and embedded in Epon resin. Thin sections were cut, stained with uranyl acetate and lead citrate and viewed in a Philips 300 electron microscope. In some cases the monolayer of cells were scraped with rubber policeman after fixation and pelleted and processed for sectioning as above.

[4] = 0.02 mM hydrogen peroxide, acridine orange

SMILES	effect on frequency of endoapoptotic bodies (A10 cells [1])	induction of classic apoptosis (A10 cells [2]; 0.02 mM hydrogen peroxide in the culture medium, followed over 24 hours)	persistence of red nuclear fluorescence (A10 cells [2]; [4]) [h]	time after apoptotic death until nuclei displayed red fluorescence (A10 cells [2]; [4]) [h]	temporal changes in nuclear fluorescence pattern compared with 0.2 mM (A10 cells [2]; 0.1 mM hydrogen peroxide, acridine orange)	nuclear changes in transmission electron microscopy (A10 cells [3])
C=C1[C@@H](C)[C@H]2[C@H](Cc3ccccc3)NC(=O)[C@]23OC(=O)/C=C/[C@H](O)CCC[C@@H](C)C/C=C/[C@H]3[C@@H]1O [cytochalasin B]	did not reduce the frequency of endoapoptotic bodies	–	–	–	–	–
OO [hydrogen peroxide]	–	classic apoptosis was induced	3 to 6	2 to 3	induced similar changes with a 24 h delay	typical apoptotic changes in the nucleus such as chromatin marginization and condensation
